Our source for the 3 h FOB score values is the OligoGym collection.

HELM strings list units from the 5' end as sugar, base in round brackets, then linkage (d deoxyribose, r ribose, m 2'-O-methyl, p phosphodiester). Strings are as the collection lists them; they lack the last nucleoside at the 3' end of the tested compound. [moe] = 2'-O-(2-methoxyethyl) (MOE); [sp] = phosphorothioate linkage; [m5C] = 5-methylcytosine

The target of this series is ATXN3. In words: mouse, dose not given. Conditions: ASO.
For the substance “RNA1{[moe](A)[sp].[moe](A)p.[moe](T)p.[moe](G)p.[moe]([m5C])[sp].d(T)[sp].d([m5C])[sp].d(A)[sp].d(T)[sp].d(T)[sp].d(T)[sp].d(A)[sp].d(T)[sp].d(T)[sp].d([m5C])[sp].[moe](T)p.[moe]([m5C])p.[moe](A)[sp].[moe](A)}$$$$ (last 3' nucleoside missing)”, the 3 h FOB score is 2 score 0-7. The substance “RNA1{[moe](A)[sp].[moe](A)p.[moe](T)p.[moe](G)p.[moe]([m5C])p.d(A)[sp].d(T)[sp].d(A)[sp].d(T)[sp].d(T)[sp].d(G)[sp].d(G)[sp].d(T)[sp].d(T)[sp].d(T)[sp].[moe](T)p.[moe]([m5C])p.[moe](T)[sp].[moe]([m5C])}$$$$ (last 3' nucleoside missing)” displayed a 3 h FOB score of 4 score 0-7.

For the substance “RNA1{[moe](A)[sp].[moe](A)p.[moe](T)p.[moe](T)p.[moe]([m5C])[sp].d(T)[sp].d(T)[sp].d(G)[sp].d([m5C])[sp].d(T)[sp].d(T)[sp].d([m5C])[sp].d(A)[sp].d(A)[sp].d([m5C])[sp].[moe]([m5C])p.[moe](A)p.[moe](T)[sp].[moe]([m5C])}$$$$ (last 3' nucleoside missing)”, the 3 h FOB score is 1.25 score 0-7. In the case of “RNA1{[moe](A)[sp].[moe](G)[sp].[moe]([m5C])p.[moe]([m5C])p.[moe](A)[sp].d(A)[sp].d(T)[sp].d(A)[sp].d(T)[sp].d(T)[sp].d(T)[sp].d(A)[sp].d(T)[sp].d(A)[sp].d(G)[sp].[moe](G)p.[moe](T)p.[moe](G)[sp].[moe]([m5C])}$$$$ (last 3' nucleoside missing)” it was 1 score 0-7. “RNA1{[moe](A)[sp].[moe](G)p.[moe](T)p.[moe](G)p.[moe]([m5C])[sp].d(T)[sp].d(A)[sp].d(T)[sp].d(A)[sp].d(A)[sp].d(T)[sp].d(T)[sp].d([m5C])[sp].d(T)[sp].d(T)[sp].[moe](G)p.[moe]([m5C])p.[moe](T)[sp].[moe](T)}$$$$ (last 3' nucleoside missing)”: the 3 h FOB score stood at 0.25 score 0-7. In the case of “RNA1{[moe](A)[sp].[moe](G)p.[moe](T)p.[moe](G)p.[moe]([m5C])[sp].d(T)[sp].d(U)[sp].d(T)[sp].d(T)[sp].d([m5C])[sp].d(A)[sp].d(T)[sp].d(A)[sp].d([m5C])[sp].d([m5C])[sp].[moe](A)p.[moe](G)p.[moe](G)[sp].[moe](T)}$$$$ (last 3' nucleoside missing)” it was 0.75 score 0-7; in that of “RNA1{[moe](A)[sp].[moe](G)p.[moe](T)p.[moe](G)p.[moe]([m5C])p.[moe](T)p.d(T)[sp].d(T)[sp].d(T)[sp].d([m5C])[sp].d(A)[sp].d(T)[sp].d(A)[sp].d([m5C])[sp].d([m5C])[sp].d(A)[sp].[moe](G)p.[moe](G)[sp].[moe](T)}$$$$ (last 3' nucleoside missing)”, 1 score 0-7.

Turning to “RNA1{[moe](A)[sp].[moe](G)p.[moe]([m5C])p.[moe]([m5C])p.[moe](A)[sp].d(A)[sp].d(T)[sp].d(A)[sp].d(T)[sp].d(T)[sp].d(T)[sp].d(A)[sp].d(T)[sp].d(A)[sp].d(G)[sp].[moe](G)p.[moe](T)p.[moe](G)[sp].[moe]([m5C])}$$$$ (last 3' nucleoside missing)”, the 3 h FOB score was 1 score 0-7. The substance “RNA1{[moe](A)[sp].[moe](G)p.[moe]([m5C])p.[moe]([m5C])p.[moe](A)p.d(A)[sp].d(T)[sp].d(A)[sp].d(T)[sp].d(T)[sp].d(T)[sp].d(A)[sp].d(T)[sp].d(A)[sp].d(G)[sp].[moe](G)p.[moe](T)p.[moe](G)[sp].[moe]([m5C])}$$$$ (last 3' nucleoside missing)” showed a 3 h FOB score of 1 score 0-7.

Take “RNA1{[moe](A)[sp].[moe](T)p.[moe](G)[sp].[moe](T)[sp].[moe](T)[sp].d(A)[sp].d(A)[sp].d(T)[sp].d(A)[sp].d([m5C])[sp].d(T)[sp].d(T)[sp].d(T)[sp].d(T)[sp].d(T)[sp].[moe]([m5C])[sp].[moe]([m5C])p.[moe](A)[sp].[moe](G)}$$$$ (last 3' nucleoside missing)”: the 3 h FOB score worked out at 0.25 score 0-7.

Take “RNA1{[moe](A)[sp].[moe](T)p.[moe](G)p.[moe](A)p.[moe](G)[sp].d([m5C])[sp].d([m5C])[sp].d(A)[sp].d(A)[sp].d(T)[sp].d(A)[sp].d(T)[sp].d(T)[sp].d(T)[sp].d(A)[sp].[moe](T)p.[moe](A)p.[moe](G)[sp].[moe](G)}$$$$ (last 3' nucleoside missing)”: the 3 h FOB score was 1 score 0-7.

As for “RNA1{[moe](A)[sp].[moe](T)p.[moe](G)p.[moe](T)p.[moe](T)[sp].d([m5C])[sp].d(A)[sp].d(T)[sp].d(A)[sp].d(T)[sp].d([m5C])[sp].d([m5C])[sp].d(T)[sp].d(T)[sp].d(T)[sp].[moe](A)p.[moe](A)p.[moe]([m5C])[sp].[moe]([m5C])}$$$$ (last 3' nucleoside missing)”, the 3 h FOB score was 0 score 0-7. For “RNA1{[moe](A)[sp].[moe](T)p.[moe](G)p.[moe](T)p.[moe](T)p.[moe]([m5C])p.d(A)[sp].d(T)[sp].d(A)[sp].d(T)[sp].d([m5C])[sp].d([m5C])[sp].d(T)[sp].d(T)[sp].d(T)[sp].d(A)[sp].[moe](A)p.[moe]([m5C])[sp].[moe]([m5C])}$$$$ (last 3' nucleoside missing)”, the 3 h FOB score was 0 score 0-7. The substance “RNA1{[moe](A)[sp].[moe](T)p.[moe](G)p.[moe]([m5C])p.[moe](T)[sp].d([m5C])[sp].d(A)[sp].d(T)[sp].d(T)[sp].d(T)[sp].d(A)[sp].d(T)[sp].d(T)[sp].d([m5C])[sp].d(T)[sp].[moe]([m5C])p.[moe](A)p.[moe](A)[sp].[moe](G)}$$$$ (last 3' nucleoside missing)” had a 3 h FOB score of 0 score 0-7. Next, “RNA1{[moe](A)[sp].[moe](T)p.[moe](T)p.[moe](T)p.[moe](T)[sp].d([m5C])[sp].d(A)[sp].d(T)[sp].d(G)[sp].d(T)[sp].d(T)[sp].d([m5C])[sp].d([m5C])[sp].d(A)[sp].d(G)[sp].[moe](A)p.[moe](T)p.[moe]([m5C])[sp].[moe](A)}$$$$ (last 3' nucleoside missing)”: 1 score 0-7. In the case of “RNA1{[moe](A)[sp].[moe](T)p.[moe](T)p.[moe]([m5C])p.[moe](T)[sp].d(T)[sp].d(G)[sp].d([m5C])[sp].d(T)[sp].d(T)[sp].d([m5C])[sp].d(A)[sp].d(A)[sp].d([m5C])[sp].d([m5C])[sp].[moe](A)p.[moe](T)p.[moe]([m5C])[sp].[moe](A)}$$$$ (last 3' nucleoside missing)” it was 0.375 score 0-7; in that of “RNA1{[moe](A)[sp].[moe](T)p.[moe]([m5C])p.[moe](A)p.[moe]([m5C])[sp].d(T)[sp].d(G)[sp].d([m5C])[sp].d(A)[sp].d([m5C])[sp].d(A)[sp].d([m5C])[sp].d(T)[sp].d(T)[sp].d(T)[sp].[moe]([m5C])p.[moe]([m5C])p.[moe](T)[sp].[moe]([m5C])}$$$$ (last 3' nucleoside missing)”, 0 score 0-7; in that of “RNA1{[moe](A)[sp].[moe]([m5C])p.[moe](T)p.[moe](A)p.[moe]([m5C])[sp].d([m5C])[sp].d(T)[sp].d(T)[sp].d(G)[sp].d([m5C])[sp].d(A)[sp].d(T)[sp].d(A)[sp].d([m5C])[sp].d(T)[sp].[moe](T)p.[moe](A)p.[moe](G)[sp].[moe]([m5C])}$$$$ (last 3' nucleoside missing)”, 1.12 score 0-7. As to “RNA1{[moe](A)[sp].[moe]([m5C])p.[moe](T)p.[moe](G)p.[moe](G)[sp].d(T)[sp].d([m5C])[sp].d(A)[sp].d(G)[sp].d(T)[sp].d(T)[sp].d(T)[sp].d([m5C])[sp].d([m5C])[sp].d(T)[sp].[moe](A)p.[moe](A)p.[moe](T)[sp].[moe](T)}$$$$ (last 3' nucleoside missing)”, the 3 h FOB score worked out at 0 score 0-7. Regarding “RNA1{[moe](A)[sp].[moe]([m5C])p.[moe](T)p.[moe](G)p.[moe]([m5C])[sp].d(A)[sp].d([m5C])[sp].d(A)[sp].d([m5C])[sp].d(T)[sp].d(T)[sp].d(T)[sp].d([m5C])[sp].d([m5C])[sp].d(T)[sp].[moe]([m5C])p.[moe]([m5C])p.[moe](T)[sp].[moe]([m5C])}$$$$ (last 3' nucleoside missing)”, the 3 h FOB score is 0 score 0-7. Consider “RNA1{[moe](A)[sp].[moe]([m5C])p.[moe]([m5C])p.[moe](A)p.[moe](T)[sp].d([m5C])[sp].d(T)[sp].d(T)[sp].d(T)[sp].d(G)[sp].d(A)[sp].d([m5C])[sp].d(A)[sp].d(A)[sp].d(G)[sp].[moe]([m5C])p.[moe](T)p.[moe](A)[sp].[moe](T)}$$$$ (last 3' nucleoside missing)”, for which the 3 h FOB score was 2.75 score 0-7. In the case of “RNA1{[moe](A)[sp].[moe]([m5C])p.[moe]([m5C])p.[moe]([m5C])p.[moe](A)[sp].d(A)[sp].d(T)[sp].d(A)[sp].d(A)[sp].d(T)[sp].d([m5C])[sp].d(T)[sp].d(G)[sp].d(A)[sp].d([m5C])[sp].[moe](A)p.[moe](T)p.[moe]([m5C])[sp].[moe]([m5C])}$$$$ (last 3' nucleoside missing)” it was 0 score 0-7; in that of “RNA1{[moe](G)[sp].[moe](G)p.[moe](T)p.[moe](T)p.[moe](T)[sp].d(T)[sp].d([m5C])[sp].d(T)[sp].d([m5C])[sp].d(A)[sp].d(T)[sp].d(T)[sp].d(T)[sp].d(T)[sp].d(T)[sp].[moe](A)p.[moe](T)p.[moe](A)[sp].[moe](T)}$$$$ (last 3' nucleoside missing)”, 2.25 score 0-7; in that of “RNA1{[moe](G)[sp].[moe](G)p.[moe](T)p.[moe]([m5C])p.[moe](A)p.[moe](G)p.d(T)[sp].d(T)[sp].d(T)[sp].d([m5C])[sp].d([m5C])[sp].d(T)[sp].d(A)[sp].d(A)[sp].d(T)[sp].d(T)[sp].[moe](T)p.[moe](T)[sp].[moe](A)}$$$$ (last 3' nucleoside missing)”, 1 score 0-7. In the case of “RNA1{[moe](G)[sp].[moe](G)p.[moe]([m5C])p.[moe](A)p.[moe]([m5C])p.[moe](A)p.d(T)[sp].d(T)[sp].d(T)[sp].d(T)[sp].d(T)[sp].d(T)[sp].d(A)[sp].d(T)[sp].d(A)[sp].d(G)[sp].[moe](A)p.[moe](G)[sp].[moe](T)}$$$$ (last 3' nucleoside missing)” it was 1 score 0-7.
